According to US20120148690A1, “SKIN BARRIER FUNCTION RECOVERY ACCELERATOR” (SHISEIDO COMPANY, LTD., priority 2010, published 2012):

Legend:
[1] = target: T1, TRPA1 (Mus musculus, UniProt Q8BLA8); experiment: Barrier recovery after tape stripping, measured by transepidermal water loss (TEWL); format: in vivo, hairless mice; settings: for Barrier recovery (TEWL recovery rate): local application of 100 μl of 0.5 mM agonist solution immediately after tape stripping
T1 construct: TRPA1 in mouse epidermis was determined to positively immunostained; from tissue; host or cells: skin (epidermis) of living male HR-1 hairless mice
T1 sequence (Q8BLA8 whole entry): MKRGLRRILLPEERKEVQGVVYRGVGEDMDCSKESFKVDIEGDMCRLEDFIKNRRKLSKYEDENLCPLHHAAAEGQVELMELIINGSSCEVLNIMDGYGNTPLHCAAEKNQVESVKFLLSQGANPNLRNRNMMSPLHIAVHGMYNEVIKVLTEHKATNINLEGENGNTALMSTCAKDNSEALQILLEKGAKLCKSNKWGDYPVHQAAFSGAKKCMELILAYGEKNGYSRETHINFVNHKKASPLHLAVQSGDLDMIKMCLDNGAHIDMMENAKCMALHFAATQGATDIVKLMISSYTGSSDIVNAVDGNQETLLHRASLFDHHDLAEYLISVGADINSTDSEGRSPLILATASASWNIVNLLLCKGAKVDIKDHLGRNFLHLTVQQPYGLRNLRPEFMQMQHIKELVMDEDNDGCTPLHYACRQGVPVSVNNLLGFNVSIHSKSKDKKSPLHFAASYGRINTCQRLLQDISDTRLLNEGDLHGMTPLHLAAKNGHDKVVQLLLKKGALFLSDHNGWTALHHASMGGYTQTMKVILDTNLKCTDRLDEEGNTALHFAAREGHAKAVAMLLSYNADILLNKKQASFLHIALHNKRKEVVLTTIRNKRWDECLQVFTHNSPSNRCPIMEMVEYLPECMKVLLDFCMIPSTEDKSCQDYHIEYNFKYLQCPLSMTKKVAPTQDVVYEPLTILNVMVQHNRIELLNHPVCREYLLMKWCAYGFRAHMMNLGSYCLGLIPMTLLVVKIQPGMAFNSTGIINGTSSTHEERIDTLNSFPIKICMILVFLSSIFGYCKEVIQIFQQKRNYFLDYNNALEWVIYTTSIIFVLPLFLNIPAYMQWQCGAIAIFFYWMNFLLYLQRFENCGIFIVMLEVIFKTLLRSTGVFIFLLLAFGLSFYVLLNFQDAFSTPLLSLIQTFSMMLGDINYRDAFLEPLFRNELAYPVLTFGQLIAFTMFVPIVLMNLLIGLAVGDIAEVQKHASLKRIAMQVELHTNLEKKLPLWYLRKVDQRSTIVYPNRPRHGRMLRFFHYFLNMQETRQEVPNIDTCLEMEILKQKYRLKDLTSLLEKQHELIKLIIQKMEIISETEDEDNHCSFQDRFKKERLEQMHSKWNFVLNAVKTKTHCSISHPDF
Protocol: Male hairless mice age 7 to 10 weeks (HR-1, Hoshino Laboratory Animals, Inc., Japan) were used in all experiments. Measurement of skin barrier function, barrier destruction and application of test samples were carried out while the animals were anesthetized with Nembutal.
Permeability barrier function was evaluated on the basis of measurement results for transepidermal water loss (TEWL) obtained using an electrical moisture analyzer (Meeco Inc.) in the manner previously described (Denda, et al., J. Invest. Dermatol., 111, 858-863 (1998): Non-Patent Document 10). In the barrier recovery experiment, treatment was carried out on the animals consisting of repeatedly carrying out tape stripping on skin on both sides of the abdomen until TEWL reached 7 to 10 mg/cm^2/hr. The effects of each treatment were investigated by measuring at two locations on the sides of the abdomen using four mice. Next, TEWL values at the same sites were measured at 1, 3, 6 and 24 hours after barrier destruction. In order to avoid the effects of circadian rhythm, the speed of barrier recovery was investigated immediately after destroying the skin barrier between the hours of 7:00 AM and 8:00 AM. The results for barrier recovery were expressed in terms of recovery rate (%). This is because the degree of barrier destruction varies from day to day. Recovery rate was calculated for each mouse using the following formula:
[(TEWL immediately after barrier destruction−TEWL at indicated time)/(TEWL immediately after barrier destruction−TEWL basal value)]×100%
The effects of TRPA1 agonist on undamaged skin of hairless mice were first evaluated. The skin permeability barrier was destroyed by tape stripping followed immediately thereafter by application of 100 μl of agonist solution. […] Next, the surface of the skin on one side of the abdomen was chilled (10 to 15° C.) for 1 minute using a cold insulator. The other side of the abdomen was maintained at 35 to 36° C. using a heating pad. The temperatures of both sides of the abdomen were monitored with a thermometer (Data Logger Thermometer MT-309, Mother Tool Co., Ltd.).

[2] = target: T1, TRPA1; experiment: Electron microscopy of lamellar body secretion between stratum corneum and stratum granulosum; format: in vivo, hairless mice; settings: pretreatment with antagonist; short exposure to low temperature; FIG. 4c
[3] = target: TRPV1 (Homo sapiens, UniProt Q8NER1); settings: cited from earlier work
Chain of TRPV1 (Q8NER1 whole entry, species assumed): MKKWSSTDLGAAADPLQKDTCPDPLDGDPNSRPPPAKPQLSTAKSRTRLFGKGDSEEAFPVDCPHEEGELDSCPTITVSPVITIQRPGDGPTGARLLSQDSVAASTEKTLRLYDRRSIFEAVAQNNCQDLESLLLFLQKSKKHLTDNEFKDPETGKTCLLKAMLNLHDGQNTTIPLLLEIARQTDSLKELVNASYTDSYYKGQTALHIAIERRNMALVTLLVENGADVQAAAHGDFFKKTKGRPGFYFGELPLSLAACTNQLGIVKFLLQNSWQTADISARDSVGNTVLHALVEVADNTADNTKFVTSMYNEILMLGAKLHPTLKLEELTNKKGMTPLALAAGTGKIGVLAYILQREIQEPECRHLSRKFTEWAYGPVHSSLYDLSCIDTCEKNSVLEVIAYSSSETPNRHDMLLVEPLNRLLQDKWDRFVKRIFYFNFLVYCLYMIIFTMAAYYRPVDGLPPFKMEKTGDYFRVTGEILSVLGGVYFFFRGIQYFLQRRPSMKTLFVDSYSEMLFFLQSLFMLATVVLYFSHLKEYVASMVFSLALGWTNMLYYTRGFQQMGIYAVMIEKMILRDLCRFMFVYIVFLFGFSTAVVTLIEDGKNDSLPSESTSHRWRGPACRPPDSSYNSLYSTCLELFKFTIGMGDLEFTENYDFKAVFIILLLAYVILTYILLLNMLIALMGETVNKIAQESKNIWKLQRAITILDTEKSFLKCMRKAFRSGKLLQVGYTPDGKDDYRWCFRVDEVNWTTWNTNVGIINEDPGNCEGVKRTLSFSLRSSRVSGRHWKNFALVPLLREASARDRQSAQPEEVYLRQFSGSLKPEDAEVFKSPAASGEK

[4] = target: TRPV4 (Homo sapiens, UniProt Q9HBA0); settings: common TRP inhibitor; TRPV4 activated by heat (36 to 40° C.) or agonist; cited from earlier work
Chain of TRPV4 (Q9HBA0 whole entry, species assumed): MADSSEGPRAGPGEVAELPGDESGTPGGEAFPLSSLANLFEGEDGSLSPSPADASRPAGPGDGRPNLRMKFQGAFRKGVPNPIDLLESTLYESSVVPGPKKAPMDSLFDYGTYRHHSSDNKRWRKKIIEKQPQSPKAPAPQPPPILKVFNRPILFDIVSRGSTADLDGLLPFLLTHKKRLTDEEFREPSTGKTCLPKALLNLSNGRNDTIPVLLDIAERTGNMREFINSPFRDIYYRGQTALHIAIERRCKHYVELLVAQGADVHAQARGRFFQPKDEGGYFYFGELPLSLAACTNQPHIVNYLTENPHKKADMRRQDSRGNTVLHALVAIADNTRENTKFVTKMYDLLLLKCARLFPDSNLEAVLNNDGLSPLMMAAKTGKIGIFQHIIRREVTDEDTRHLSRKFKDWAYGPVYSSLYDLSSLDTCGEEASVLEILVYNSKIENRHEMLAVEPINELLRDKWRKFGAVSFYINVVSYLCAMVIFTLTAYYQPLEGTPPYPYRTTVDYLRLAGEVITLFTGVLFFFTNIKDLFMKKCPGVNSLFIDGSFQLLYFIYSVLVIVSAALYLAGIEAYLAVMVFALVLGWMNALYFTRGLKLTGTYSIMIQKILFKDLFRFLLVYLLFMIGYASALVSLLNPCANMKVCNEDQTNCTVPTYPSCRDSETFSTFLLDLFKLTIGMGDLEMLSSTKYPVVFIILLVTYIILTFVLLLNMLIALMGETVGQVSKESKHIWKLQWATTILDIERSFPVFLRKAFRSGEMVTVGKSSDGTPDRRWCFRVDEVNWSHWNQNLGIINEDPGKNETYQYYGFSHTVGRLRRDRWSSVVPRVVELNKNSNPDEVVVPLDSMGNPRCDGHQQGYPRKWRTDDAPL

## CC(C)c1ccc(NC(=O)Cn2cnc3c2c(=O)n(C)c(=O)n3C)cc1 [HC030031, 2-(1,3-dimethyl-2,6-dioxo-1,2,3,6-tetrahydro-7H-purin-7-yl)-N-(4-isopropylphenyl)acetoamide]
[1]; pretreatment with 50 μM antagonist, FIG. 1
  Effect on barrier recovery acceleration by allyl isothiocyanate or cinnamaldehyde: inhibited
[1]; pretreatment with antagonist, FIG. 2
  Effect on barrier recovery acceleration by 1 minute of cooling (10 to 15° C.): inhibited
[2]
  Effect on low-temperature-accelerated secretion of lamellar bodies: inhibited

## C=CCN=C=S [allyl isothiocyanate]
[1]; FIG. 1
  Barrier recovery (TEWL recovery rate): accelerated

## COc1cc(CNC(=O)CCCC/C=C/C(C)C)ccc1O [capsaicin]
[3]; TRPV1 activated after destroying the skin barrier
  Repair of the skin barrier: delayed

## Oc1cc2c(cc1O)CN(C(=S)NCCc1ccc(Cl)cc1)CCC2 [capsazepine]
[3]; TRPV1 antagonist
  Effect on delay of barrier repair caused by TRPV1 activation: inhibited

## O=CC=Cc1ccccc1 [cinnamaldehyde]
[1]; FIG. 1
  Barrier recovery (TEWL recovery rate): accelerated

## N.N.N.N.N.N.N.N.N.N.N.N.N.N.[Cl-].[Cl-].[Cl-].[Cl-].[Cl-].[Cl-].[O-2].[O-2].[Ru+3].[Ru+3].[Ru+4] [ruthenium red]
[4]
  Effect on barrier repair acceleration by TRPV4 activation: inhibited
